From patent publication KR20160024853A, “당뇨병 치료를 위한 주사형 나노-네트워크 겔” (메사추세츠 인스티튜트 오브 테크놀로지, priority 2013, dated 2016)

Legend:
[1] = test system: STZ-induced diabetic mice (male C57B6); experiment: Blood glucose control in STZ-induced diabetic mice after one subcutaneous injection; assay type: in vivo, mouse; conditions: after administration
[2] = Plasma human insulin in STZ-induced diabetic mice (human insulin ELISA); conditions: mouse, in vivo

인슐린 용액: human recombinant insulin solution (zinc salt, Invitrogen)
time when BG rose to the hyperglycemic range [1]: 둘째 날 | plasma insulin concentration on the day after administration [2]: 급격한 감소
